Laboratory results published in PubChem BioAssay AID330 (DTP/NCI, 2004).
Where “and” joins values, the source holds several entries; their conditions need not be identical. Identical values can stand only once. Inconclusive results and toxic doses are left out.

Test system: P388 leukemia ip, CD2F1 mice, survival T/C
Assay: NCI In Vivo Anticancer Drug Screen. Data for tumor model P388 Leukemia (intraperitoneal) in CD2F1 (CDF1) mice
Details: endpoint: median survival time, higher = longer survival
Description: The antitumor activity of compounds was measured in mice bearing transplantable tumors. Survival or tumor size were measured and the results are expressed as the measurement made in the treated group (T) divided by the measurement made in the vehicle treated control group (C). The tumor model used in this assay is P388 Leukemia (intraperitoneal) in CD2F1 (CDF1) mice

[1] = dose: 50.0 mg/kg/injection, schedule: Q01DX005 (ip), vehicle: Klucel (hydroxypropylcellulose) (HPC)
[2] = dose: 100.0 mg/kg/injection, schedule: Q01DX005 (ip), vehicle: Klucel (hydroxypropylcellulose) (HPC)
[3] = dose: 50.0 mg/kg/injection, schedule: Q01DX009 (ip), vehicle: saline
[4] = dose: 100.0 mg/kg/injection, schedule: Q01DX009 (ip), vehicle: saline
[5] = dose: 200.0 mg/kg/injection, schedule: Q01DX009 (ip), vehicle: saline
[6] = dose: 50.0 mg/kg/injection, schedule: Q01DX009 (ip), vehicle: Klucel (hydroxypropylcellulose) (HPC)
[7] = dose: 100.0 mg/kg/injection, schedule: Q01DX009 (ip), vehicle: Klucel (hydroxypropylcellulose) (HPC)
[8] = dose: 200.0 mg/kg/injection, schedule: Q01DX009 (ip), vehicle: Klucel (hydroxypropylcellulose) (HPC)
[9] = dose: 100.0 mg/kg/injection, schedule: Q01DX005 (ip), vehicle: saline with Tween-80
[10] = dose: 200.0 mg/kg/injection, schedule: Q01DX005 (ip), vehicle: saline with Tween-80
[11] = dose: 60.0 mg/kg/injection, schedule: Q01DX005 (ip), vehicle: saline with Tween-80
[12] = dose: 50.0 mg/kg/injection, schedule: Q01DX009 (ip), vehicle: saline with Tween-80
[13] = dose: 100.0 mg/kg/injection, schedule: Q01DX009 (ip), vehicle: saline with Tween-80

SMILES: C=C1CCC2C(C)(CO)C(O)CCC2(C)C1CCC1=CCOC1=O (stereo not drawn)
- T/C (dose: 11.0 mg/kg/injection, schedule: Q01DX005 (ip), vehicle: Klucel (hydroxypropylcellulose) (HPC)): 110 % of control
- T/C (dose: 22.0 mg/kg/injection, schedule: Q01DX005 (ip), vehicle: Klucel (hydroxypropylcellulose) (HPC)): 99 % of control
- T/C (dose: 44.0 mg/kg/injection, schedule: Q01DX005 (ip), vehicle: Klucel (hydroxypropylcellulose) (HPC)): 99 % of control
- T/C (dose: 88.0 mg/kg/injection, schedule: Q01DX005 (ip), vehicle: Klucel (hydroxypropylcellulose) (HPC)): 97 % of control

SMILES: Cc1ccc(S(=O)(=O)NC(=O)O/N=C/c2ccco2)cc1
- T/C [1]: 98 % of control
- T/C [2]: 98 % of control
- T/C (dose: 200.0 mg/kg/injection, schedule: Q01DX005 (ip), vehicle: Klucel (hydroxypropylcellulose) (HPC)): 100 % of control

SMILES: Cc1cc(NCCCN(C)C)c2ccc3cc4ccccc4cc3c2n1
- T/C (dose: 25.0 mg/kg/injection, schedule: Q04DX002 (ip), vehicle: saline with Tween-80): 93 % of control
- T/C (dose: 50.0 mg/kg/injection, schedule: Q04DX002 (ip), vehicle: saline with Tween-80): 92 % of control
- T/C (dose: 100.0 mg/kg/injection, schedule: Q04DX002 (ip), vehicle: saline with Tween-80): 108 % of control and 94 % of control

SMILES: CCOC(=O)c1c[nH]c2cc3ccccc3cc2c1=O
- T/C [3]: 91 % of control
- T/C [4]: 107 % of control
- T/C [5]: 117 % of control

SMILES: c1ccc(N2C3Sc4ncccc4C2Sc2ncccc23)cc1
- T/C [6]: 104 % of control
- T/C [7]: 94 % of control
- T/C [8]: 96 % of control

SMILES: COC(=O)C(Br)CCCC(Br)C(=O)OC (stereo not drawn)
- T/C (dose: 25.0 mg/kg/injection, schedule: Q01DX009 (ip), vehicle: distilled water + Tween-80): 97 % of control
- T/C (dose: 50.0 mg/kg/injection, schedule: Q01DX009 (ip), vehicle: distilled water + Tween-80): 106 % of control
- T/C (dose: 100.0 mg/kg/injection, schedule: Q01DX009 (ip), vehicle: distilled water + Tween-80): 103 % of control
- T/C (dose: 200.0 mg/kg/injection, schedule: Q01DX009 (ip), vehicle: distilled water + Tween-80): 104 % of control

SMILES: ClCCN(CCCCCCN(CCCl)c1ccccc1)c1ccccc1
- T/C [6]: 109 % of control
- T/C [7]: 109 % of control
- T/C [8]: 108 % of control

SMILES: Nc1nc(-c2ccccc2)c(Br)c(=O)[nH]1
- T/C [9]: 112 % of control
- T/C [10]: 105 % of control
- T/C (dose: 400.0 mg/kg/injection, schedule: Q01DX005 (ip), vehicle: saline with Tween-80): 100 % of control

SMILES: Cc1cccc(C(O)c2cnc(C)n2Cc2ccccc2)c1 (stereo not drawn)
- T/C (dose: 60.0 mg/kg/injection, schedule: Q01DX005 (ip), vehicle: Klucel (hydroxypropylcellulose) (HPC)): 101 % of control
- T/C (dose: 120.0 mg/kg/injection, schedule: Q01DX005 (ip), vehicle: Klucel (hydroxypropylcellulose) (HPC)): 109 % of control
- T/C (dose: 240.0 mg/kg/injection, schedule: Q01DX005 (ip), vehicle: Klucel (hydroxypropylcellulose) (HPC)): 100 % of control

SMILES: CCCC[Si](O)(CCCC)CCCC
- T/C [3]: 100 % of control
- T/C [4]: 102 % of control
- T/C [5]: 100 % of control

SMILES: COC(=O)[C@@H]1[C@H](O)[C@H](C)[C@H](O)[C@H](C)/C=C\C=C(C)C(=O)Nc2c(C)c(OC(C)=O)c3c(c2O)C(=O)C(C)=C2OCOC(=C23)C(C)=C[C@@](C)(O)[C@H](O)[C@@H](C)[C@H]1OC(C)=O
- T/C [3]: 96 % of control
- T/C [4]: 109 % of control and 96 % of control
- T/C [5]: 99 % of control and 122 % of control
- T/C (dose: 400.0 mg/kg/injection, schedule: Q01DX009 (ip), vehicle: saline): 100 % of control

SMILES: C/C(CCl)=N\NC1=NC(C)(CCl)P(=O)(NNc2ncccn2)S1 (stereo not drawn)
- T/C (dose: 3.75 mg/kg/injection, schedule: Q01DX005 (ip), vehicle: saline): 104 % of control
- T/C (dose: 7.5 mg/kg/injection, schedule: Q01DX005 (ip), vehicle: saline): 106 % of control
- T/C (dose: 15.0 mg/kg/injection, schedule: Q01DX005 (ip), vehicle: saline): 100 % of control and 113 % of control
- T/C (dose: 30.0 mg/kg/injection, schedule: Q01DX005 (ip), vehicle: saline): 106 % of control and 113 % of control and 97 % of control
- T/C (dose: 60.0 mg/kg/injection, schedule: Q01DX005 (ip), vehicle: saline): 105 % of control and 106 % of control and 107 % of control
- T/C (dose: 120.0 mg/kg/injection, schedule: Q01DX005 (ip), vehicle: saline): 101 % of control

SMILES: O=C(CC(c1ccccc1)C(Sc1ccccc1)(Sc1ccccc1)Sc1ccccc1)c1ccccc1 (stereo not drawn)
- T/C (dose: 25.0 mg/kg/injection, schedule: Q01DX009 (ip), vehicle: Klucel (hydroxypropylcellulose) (HPC)): 100 % of control
- T/C [6]: 100 % of control
- T/C [7]: 100 % of control and 105 % of control

SMILES: CCOC(=O)C12CC(COc3ccc([N+](=O)[O-])cc3)ON1OC(COc1ccc([N+](=O)[O-])cc1)C2 (stereo not drawn)
- T/C (dose: 15.0 mg/kg/injection, schedule: Q01DX005 (ip), vehicle: saline with Tween-80): 93 % of control
- T/C (dose: 30.0 mg/kg/injection, schedule: Q01DX005 (ip), vehicle: saline with Tween-80): 90 % of control
- T/C [11]: 86 % of control and 88 % of control

SMILES: N#CC1(OC2OC(CO)C(O)C(O)C2O)C=CC(OS(=O)(=O)O)C1 (stereo not drawn)
- T/C (dose: 25.0 mg/kg/injection, schedule: Q01DX005 (ip), vehicle: saline): 103 % of control
- T/C (dose: 50.0 mg/kg/injection, schedule: Q01DX005 (ip), vehicle: saline): 100 % of control
- T/C (dose: 100.0 mg/kg/injection, schedule: Q01DX005 (ip), vehicle: saline): 116 % of control
- T/C (dose: 200.0 mg/kg/injection, schedule: Q01DX005 (ip), vehicle: saline): 97 % of control

SMILES: O=C1C=Cc2ccccc2C1=C1SCCS1
- T/C [6]: 103 % of control
- T/C [7]: 93 % of control
- T/C [8]: 90 % of control

SMILES: CNc1nc2ncnc(NC)c2[nH]1
- T/C (dose: 50.0 mg/kg/injection, schedule: Q01DX005 (ip), vehicle: saline with Tween-80): 99 % of control
- T/C [9]: 92 % of control
- T/C [10]: 90 % of control

SMILES: Cc1ccc(C(c2ccccc2)c2ccc(C)cc2O)c(O)c1
- T/C [12]: 118 % of control
- T/C [13]: 105 % of control

SMILES: CS(=O)CCCN=C=S (stereo not drawn)
- T/C (dose: 18.75 mg/kg/injection, schedule: Q01DX009 (ip), vehicle: saline with Tween-80): 111 % of control
- T/C (dose: 37.5 mg/kg/injection, schedule: Q01DX009 (ip), vehicle: saline with Tween-80): 110 % of control
- T/C (dose: 75.0 mg/kg/injection, schedule: Q01DX009 (ip), vehicle: saline with Tween-80): 111 % of control

SMILES: FC(F)(F)c1cc(-n2c(-c3ccccc3)nc(=S)c3c2CCCC3)cc(C(F)(F)F)c1
- T/C [12]: 100 % of control
- T/C [13]: 95 % of control
- T/C (dose: 200.0 mg/kg/injection, schedule: Q01DX009 (ip), vehicle: saline with Tween-80): 94 % of control

SMILES: C(=C(\CCc1ccccn1)c1ccccn1)/c1cccnc1
- T/C (dose: 100.0 mg/kg/injection, schedule: Q01DX001 (ip), vehicle: saline): 100 % of control
- T/C (dose: 200.0 mg/kg/injection, schedule: Q01DX001 (ip), vehicle: saline): 101 % of control
- T/C (dose: 400.0 mg/kg/injection, schedule: Q01DX001 (ip), vehicle: saline): 104 % of control

SMILES: Cc1ccc(C(C)C)c2c1CN(CCCN1COc3c(C(C)C)ccc(C)c3C1)CO2
- T/C [11]: 91 % of control
- T/C (dose: 120.0 mg/kg/injection, schedule: Q01DX005 (ip), vehicle: saline with Tween-80): 86 % of control

SMILES: Cc1[nH]c(=O)cc2c1[nH]c1ccccc12
- T/C (dose: 12.5 mg/kg/injection, schedule: Q01DX005 (ip), vehicle: Klucel (hydroxypropylcellulose) (HPC)): 96 % of control
- T/C [1]: 100 % of control
- T/C [2]: 98 % of control

SMILES: O=C(NN=C(c1ccccc1)c1ccccc1)C(Cl)Cl
- T/C (dose: 42.0 mg/kg/injection, schedule: Q01DX009 (ip), vehicle: saline with Tween-80): 99 % of control
- T/C (dose: 84.0 mg/kg/injection, schedule: Q01DX009 (ip), vehicle: saline with Tween-80): 97 % of control
- T/C (dose: 168.0 mg/kg/injection, schedule: Q01DX009 (ip), vehicle: saline with Tween-80): 97 % of control

SMILES: Cc1ccc(NCCNCCO)c2c(=O)c3ccc(O)cc3sc12
- T/C [12]: 174 % of control
